The text below walks through data of ChEMBL document CHEMBL5303573, “Mapping human microbiome drug metabolism by gut bacteria and their genes” (Nature, 2019).

The conditions of data set [1]: bacteroides thetaiotaomicron, 12 h, 2 µM.
Description: The drug is tested on Bacteroides thetaiotaomicron strain: VPI-5482 for biotransformation. The drug concentrations were measured before and after a 12-h incubation by liquid-chromatography-coupled mass spectrometry (LC–MS)
Data set [2] is described as follows: The drug is tested on Edwardsiella tarda strain: ATCC23685 for biotransformation. The drug concentrations were measured before and after a 12-h incubation by liquid-chromatography-coupled mass spectrometry (LC–MS). Conditions: 2 µM.
Data set [3] is described as follows: The drug is tested on Clostridium symbiosum strain: ATCC14940 for biotransformation. The drug concentrations were measured before and after a 12-h incubation by liquid-chromatography-coupled mass spectrometry (LC–MS). As to conditions: 2 µM.
For data set [4] the following is noted: bacteroides fragilis, 12 h, 2 µM.
Description: The drug is tested on Bacteroides fragilis strain: DS-208 for biotransformation. The drug concentrations were measured before and after a 12-h incubation by liquid-chromatography-coupled mass spectrometry (LC–MS)
The conditions of data set [5]: victivallis vadensis, 12 h, 2 µM.
Description: The drug is tested on Victivallis vadensis strain: ATCC BAA-548 for biotransformation. The drug concentrations were measured before and after a 12-h incubation by liquid-chromatography-coupled mass spectrometry (LC–MS)
Data set [6] can be described thus: The drug is tested on Eubacterium hallii strain: DSM3353 for biotransformation. The drug concentrations were measured before and after a 12-h incubation by liquid-chromatography-coupled mass spectrometry (LC–MS). Conditions: anaerobutyricum hallii, 2 µM.
The conditions of data set [7]: bacteroides thetaiotaomicron, 12 h, 2 µM. This is another data set of the same source.
Description: The drug is tested on Bacteroides thetaiotaomicron strain: 7330 for biotransformation. The drug concentrations were measured before and after a 12-h incubation by liquid-chromatography-coupled mass spectrometry (LC–MS)
Data set [8] can be described thus: The drug is tested on Collinsella aerofaciens strain: ATCC25986 for biotransformation. The drug concentrations were measured before and after a 12-h incubation by liquid-chromatography-coupled mass spectrometry (LC–MS). As to conditions: 2 µM.
The nature of data set [9]: The drug is tested on Bacteroides cellulosilyticus strain: DSM14838 for biotransformation. The drug concentrations were measured before and after a 12-h incubation by liquid-chromatography-coupled mass spectrometry (LC–MS). As to conditions: 2 µM.
Data set [10] is described as follows: The drug is tested on Blautia hansenii strain: DSM20583 for biotransformation. The drug concentrations were measured before and after a 12-h incubation by liquid-chromatography-coupled mass spectrometry (LC–MS). Conditions: 2 µM.
Data set [11] can be described thus: The drug is tested on Clostridium ramosum strain: DSM1402 for biotransformation. The drug concentrations were measured before and after a 12-h incubation by liquid-chromatography-coupled mass spectrometry (LC–MS). As to conditions: thomasclavelia ramosa, 2 µM.
Data set [12] is described as follows: The drug is tested on Bifidobacterium breve strain: DSM20213 for biotransformation. The drug concentrations were measured before and after a 12-h incubation by liquid-chromatography-coupled mass spectrometry (LC–MS). As to conditions: 2 µM.
Data set [13] in a line: The drug is tested on Bacteroides vulgatus strain: ATCC8482 for biotransformation. The drug concentrations were measured before and after a 12-h incubation by liquid-chromatography-coupled mass spectrometry (LC–MS). As to conditions: phocaeicola vulgatus, 2 µM.
Data set [14] can be described thus: The drug is tested on Bacteroides xylanisolvens strain: DSM18836 for biotransformation. The drug concentrations were measured before and after a 12-h incubation by liquid-chromatography-coupled mass spectrometry (LC–MS). As to conditions: 2 µM.
Data set [15] can be described thus: The drug is tested on Bacteroides coprophilus strain: DSM18228 for biotransformation. The drug concentrations were measured before and after a 12-h incubation by liquid-chromatography-coupled mass spectrometry (LC–MS). As to conditions: 2 µM.
Data set [16] can be described thus: The drug is tested on Bacteroides fragilis strain: HMW610 for biotransformation. The drug concentrations were measured before and after a 12-h incubation by liquid-chromatography-coupled mass spectrometry (LC–MS). As to conditions: 2 µM.
The nature of data set [17]: The drug is tested on Clostridium sporogenes strain: ATCC15579 for biotransformation. The drug concentrations were measured before and after a 12-h incubation by liquid-chromatography-coupled mass spectrometry (LC–MS). As to conditions: 2 µM.
For data set [18] the following is noted: bacteroides fragilis, 12 h, 2 µM. This is another data set of the same source.
Description: The drug is tested on Bacteroides fragilis strain: 3397 (T10) for biotransformation. The drug concentrations were measured before and after a 12-h incubation by liquid-chromatography-coupled mass spectrometry (LC–MS)
Data set [19] in a line: The drug is tested on Eubacterium rectale strain: ATCC33656 for biotransformation. The drug concentrations were measured before and after a 12-h incubation by liquid-chromatography-coupled mass spectrometry (LC–MS). As to conditions: agathobacter rectalis, 2 µM.
A short description of data set [20]: The drug is tested on Bacteroides fragilis strain: ATCC43859 for biotransformation. The drug concentrations were measured before and after a 12-h incubation by liquid-chromatography-coupled mass spectrometry (LC–MS). Conditions: 2 µM.

For the compound `COc1ccnc(C[S+]([O-])c2nc3ccc(OC(F)F)cc3[nH]2)c1OC` (stereo not given) [PANTOPRAZOLE], the “Bacterial Biotransformation” value in data set [1], in data set [2], in data set [3], in data set [4], in [5] and in data set [6] was “Compound metabolized” in each case. For the same compound, the “Bacterial Biotransformation” value in data set [7], in [8], in data set [9], in data set [10], in [11] and in [12] was “Compound metabolized” each time. Also, the “Bacterial Biotransformation” value in data set [13], in [14], in data set [15], in data set [16], in data set [17] and in data set [18] was “Compound metabolized” throughout. Besides, the “Bacterial Biotransformation” value in [19] and in [20] was “Compound metabolized” throughout.
Take `CNC(=C[N+](=O)[O-])NCCSCc1csc(CN(C)C)n1` [NIZATIDINE]: the “Bacterial Biotransformation” value in data set [1] was “Compound NOT metabolized”; in data set [2], “Compound metabolized”; in data set [3], “Compound metabolized”; in data set [4] it was “Compound metabolized”; in data set [5], “Compound NOT metabolized”; in [6], “Compound metabolized”. Besides, the “Bacterial Biotransformation” value in data set [7], in [8], in data set [9], in data set [10], in data set [11] and in data set [12] was “Compound metabolized” in each case. The “Bacterial Biotransformation” value in [13] is recorded as “Compound metabolized”; in data set [14], “Compound metabolized”; in data set [15], “Compound NOT metabolized”; in data set [16], “Compound metabolized”; in [17] it was “Compound NOT metabolized”; in data set [18], “Compound NOT metabolized”. In addition, the “Bacterial Biotransformation” value in data set [19] is given as “Compound metabolized”; in data set [20], “Compound NOT metabolized”.
On to `CCN(CC)C(=O)/C(C#N)=C/c1cc(O)c(O)c([N+](=O)[O-])c1` [ENTACAPONE], for which the “Bacterial Biotransformation” value in data set [1], in [2], in [3], in data set [4], in [5] and in data set [6] was “Compound metabolized” each time. The “Bacterial Biotransformation” value in data set [7], in [8], in data set [9], in data set [10], in [11] and in data set [12] was “Compound metabolized” in each case. Also, the “Bacterial Biotransformation” value in [13], in data set [14], in [15], in data set [16], in [17] and in data set [18] was “Compound metabolized” each time. The “Bacterial Biotransformation” value in data set [19] and in [20] was “Compound metabolized” in each case.
As for `CCOc1ccc2nc(S(N)(=O)=O)sc2c1` [ETHOXZOLAMIDE], the “Bacterial Biotransformation” value was “Compound metabolized” in [1]; “Compound metabolized” in [2]; “Compound metabolized” in data set [3]; “Compound NOT metabolized” in [4]; “Compound metabolized” in data set [5]; “Compound metabolized” in data set [6]. The “Bacterial Biotransformation” value in data set [7], in [8], in [9], in data set [10], in [11] and in data set [12] was “Compound metabolized” throughout. The “Bacterial Biotransformation” value in data set [13] is given as “Compound NOT metabolized”; in data set [14] it was “Compound metabolized”; in data set [15], “Compound metabolized”; in data set [16] it was “Compound NOT metabolized”; in [17], “Compound metabolized”; in data set [18], “Compound metabolized”. The “Bacterial Biotransformation” value was “Compound metabolized” in [19] and “Compound NOT metabolized” in data set [20].
As for `CCOC(=O)C1=C(C)NC(C)=C(C(=O)OC)C1c1cccc([N+](=O)[O-])c1` (stereo not given) [NITRENDIPINE], the “Bacterial Biotransformation” value in [1], in data set [2], in data set [3], in data set [4], in [5] and in data set [6] was “Compound metabolized” each time. Besides, the “Bacterial Biotransformation” value in data set [7], in data set [8], in data set [9], in data set [10], in data set [11] and in [12] was “Compound metabolized” in each case. For the same compound, the “Bacterial Biotransformation” value is listed as “Compound metabolized” in data set [13]; “Compound metabolized” in data set [14]; “Compound NOT metabolized” in data set [15]; “Compound metabolized” in data set [16]; “Compound metabolized” in data set [17]; “Compound metabolized” in data set [18]. Further, the “Bacterial Biotransformation” value in data set [19] and in data set [20] was “Compound metabolized” in each case.
Consider `CC[C@@H](CO)NC(=O)[C@@H]1C=C2c3cccc4c3c(cn4C)C[C@H]2N(C)C1.O=C(O)/C=C\C(=O)O` [METHYSERGIDE MALEATE], for which the “Bacterial Biotransformation” value in data set [1], in data set [2], in [3], in [4], in data set [5] and in data set [6] was “Compound metabolized” throughout. For the same compound, the “Bacterial Biotransformation” value in data set [7], in [8], in [9], in data set [10], in [11] and in [12] was “Compound metabolized” each time. Besides, the “Bacterial Biotransformation” value is on record as “Compound metabolized” in data set [13]; “Compound metabolized” in [14]; “Compound metabolized” in data set [15]; “Compound NOT metabolized” in [16]; “Compound metabolized” in data set [17]; “Compound metabolized” in data set [18]. Also, the “Bacterial Biotransformation” value in data set [19] is listed as “Compound metabolized”; in data set [20], “Compound NOT metabolized”.
